{
  "source": "patent US8466195B2",
  "about": "“Methods and compositions for treating complications of diabetes and vascular diseases using flavones” (Salk Institute for Biological Studies, priority 2009, dated 2013)",
  "key": {"HT22 cells": {"system": "HT22 cells", "assay": "Oxidative glutamate toxicity (MTT cell viability)", "type": "cell-based", "conditions": "5 mM glutamate, fisetin, 24 hr", "experimental": "Cell viability was determined by a modified version of 3-(4,5-dimethylthiazol-2-yl)-2,5-diphenyl tetrazolium bromide (MTT) assay based on the standard procedure (Hansen M B et al. J. Immunol. Methods 119:203-210, 1989). Briefly, cells were seeded onto 96-well microtiter plates at a density of 5×10^3 cells per well. The next day, the medium was replaced with DMEM supplemented with 7.5% DFCS and the cells were treated with the different fisetin derivatives alone or in the presence of 5 mM glutamate. Twenty four hours later, the medium in each well was aspirated and replaced with fresh medium containing 2.5 μg/ml MTT. After 4 hours of incubation at 37° C., cells were solubilized with 100 μA of a solution containing 50% dimethylformamide and 20% SDS (pH 4.7). The absorbance at 570 nm was measured on the following day with a microplate reader (Molecular Devices). Results obtained from the MTT assay correlated directly with the extent of cell death as confirmed visually. Controls employing wells without cells were used to determine the effects of the agents upon the assay chemistry.\nAs shown in panel (A) of FIG. 3, HT22 cells were untreated (ct) or treated with 10 μM fisetin (fis) in the absence of presence of 5 mM glutamate for 24 hr and GSH was measured enzymatically and normalized to protein. As shown in panel (B) of FIG. 3, HT22 cells in 96-well plates were treated with 5 mM glutamate and the indicated concentrations of fisetin. MTT reduction was measured after 24 hr."}, "HT-22 nerve cells": {"system": "HT-22 nerve cells", "assay": "HT-22 nerve cells exposed to glutamate: MG adducts and viability", "type": "cell-based", "conditions": "5 mM glutamate, 2 μM fisetin", "experimental": "HT-22 nerve cells were exposed to 0.5 mM glutamate and Glo-1 expression monitored at 8 and 24 hrs. In panel (B) of FIG. 2, Fisetin is shown to prevent both cell death and protein glycation. HT-22 cells were exposed to 5 mM glutamate in the presence or absence of 2 μM fisetin. MG adducts were determined by Western blotting 8 hrs after glutamate exposure and viability after 24 hrs. Actin is at the bottom of the blot. In panel (C) of FIG. 2, the Glo-1 inhibitor s-p-bromobenzylglutathione […] is shown to potentiate cell death. HT-22 cells were exposed to 1 mM glutamate plus or minus 10 or 20 μM BBGD."}, "STZ-diabetic rats": {"system": "STZ-diabetic rats", "assay": "Indices of nerve function in STZ-diabetic rats", "type": "in vivo, Sprague-Dawley rats", "conditions": "25 mg/kg/day fisetin for 8 weeks", "experimental": "Adult female Sprague-Dawley rats were made diabetic with STZ and treated with vehicle or 25 mg/kg/day fisetin for 8 weeks. Large fiber function was tested by measuring nerve conduction velocity and paw withdrawal to touch and small fiber function by paw withdrawal to noxious heat. […] Data are mean±SEM of N=4-8/group."}, "Akita mice": {"system": "Akita mice", "assay": "Open field test in Akita mice", "type": "in vivo", "conditions": "fisetin 0.05% in diet for 18 weeks", "experimental": "The open field test was performed using MED Associates hardware and the Activity Monitor software according to the manufacturer's instructions (MED Associates Inc, St. Albans, Vt., USA). The open-field activity monitoring system contains a subject containment environment (chamber), infrared (I/R) sources and sensors. To perform the test, each mouse was placed in the testing chamber and the activity tracked by the Activity Monitor software for 30 min. The scanning was done every 50 ms. The behavioral parameters derived from the open field test included the following: distance traveled, ambulatory time and counts, stereotypic counts and time, resting time, vertical counts and time, jumping counts and time, average velocity, and ambulatory episodes.\nMale Akita mice were fed control diet or fisetin (0.05%) for 18 weeks beginning at 6 weeks of age. Locomotor activity was measured in the open field test. Decreased locomotor activity is an indicator of elevated anxiety which is characteristic of diabetics in poor glycemic control. […] All data are mean±SD of N=5-7/group."}, "C-reactive protein": {"system": "C-reactive protein", "assay": "Serum C-reactive protein in Akita mice (Western blot)", "type": "in vivo", "conditions": "fisetin-rich diet", "experimental": "C-reactive protein in serum was measured by SDS-PAGE and Western blotting analysis of mouse serum using an antibody from R&D.\nC-reactive protein is an acute phase protein that increases during chronic inflammation such as is seen in diabetes. Equal amounts of serum from wild type, wild type+fisetin, Akita and Akita+fisetin mice were analyzed by SDS-PAGE and immunoblotting with an antibody to C-reactive protein. Samples from 6-7 mice were analyzed and the average intensity of the C-reactive protein band determined. The data were analyzed by ANOVA followed by Tukey's post test. *** P<0.001."}, "[1]": {"system": "peripheral and CNS immune cells", "conditions": "peripheral [17] and CNS [8] immune cells; cited from earlier work"}},
  "data": [
    {"smiles": "O=c1c(O)c(-c2ccc(O)c(O)c2)oc2cc(O)ccc12", "note": "[fisetin, 2-(3,4-dihydroxyphenyl)-3,7-dihydroxychromen-4-one]", "values": [
      {"measurement": "glutamate toxicity (MTT reduction)", "setting": "HT22 cells", "result": "Reduction"},
      {"measurement": "protein glycation (MG adducts)", "setting": "HT-22 nerve cells; Western blotting 8 hrs after glutamate", "result": "prevent"},
      {"measurement": "cell death", "setting": "HT-22 nerve cells; viability after 24 hrs", "result": "prevent"},
      {"measurement": "diabetes-induced SNCV slowing", "setting": "STZ-diabetic rats", "result": "ameliorated"},
      {"measurement": "severity of diabetes", "setting": "STZ-diabetic rats", "result": "did not alter"},
      {"measurement": "tactile allodynia (paw withdrawal to touch)", "setting": "STZ-diabetic rats", "result": "ameliorated"},
      {"measurement": "thermal hyperalgesia (paw withdrawal to noxious heat)", "setting": "STZ-diabetic rats", "result": "ameliorated"},
      {"measurement": "locomotor activity in the open field test (distance traveled, ambulatory episodes)", "setting": "Akita mice", "result": "restored to near normal values"},
      {"measurement": "locomotor activity in the open field test (distance traveled, ambulatory episodes)", "setting": "Akita mice; listed as Fisetin", "result": "restored locomotor activity to nearly control levels"},
      {"measurement": "diabetes-induced increase in serum C-reactive protein", "setting": "C-reactive protein", "result": "largely prevented"},
      {"measurement": "anti-inflammatory activity", "setting": "[1]", "result": "anti-inflammatory activity"}
    ]}
  ]
}
